Measurements taken from publication PMC6013238, “Development of novel NEMO-binding domain mimetics for inhibiting IKK/NF-κB activation” (PLoS Biology, 2018).
Several values for one entry are separate records, joined by “and”; a condition that tells them apart may be missing. Equal entries are not always repeated.

Experiments:
NF-κB activation = assay: NF-κB firefly luciferase reporter assay, TNF-α-stimulated stably transfected HEK293 cells; format: cell-based, human; settings: for NF-κB luciferase activity normalized to control: control = 100; for NF-κB luciferase activity normalized to vehicle: Fig 2C, derivatives at 100 μM, TNF-α 10 ng/ml 3 h, vehicle = 100, single experiments
Method: To determine whether the small molecules identified by the in silico screening inhibit NF-κB activation, a HEK293 cell line stably expressing a luciferase reporter driven by a synthetic, NF-κB-dependent promoter was utilized. To induce NF-κB activation, cells were treated with 10 ng/mL of TNF-α and harvested 3 h post treatment for analysis of luciferase activity. […] To determine whether ZINC12909780 inhibits NF-κB in a dose-dependent manner, concentrations were tested at 0, 6.25, 25, 50, and 100 μM.
Luciferase activity was normalized to untreated stimulated control cells. […] Cell viability was calculated by normalizing to untreated cells. […] Underlying data can be found in S1 Data.
HEK293 cells stably transfected with luciferase reporter plasmid driven by NF-κB were seeded in 96-well plates in triplicate and pretreated with DMSO or varying small molecules at indicated concentration for 30 min, followed by the stimulation of 10 ng/ml of TNF-α for 3 h. Cells were washed with PBS once and harvested in Passive Lysis Buffer (Promega, Madison, WI). Luciferase assay (Promega) was performed by using a luminometer according to the manufacturer’s instructions.

NF-κB target genes = assay: LPS-induced acute inflammation, qRT-PCR of NF-κB target genes in lung and liver; format: in vivo, mouse
Method: Fig 6 Newly identified NBD mimetics suppress LPS-induced acute inflammation in vivo. (A) The bioavailability property of SR12460, SR12343, SR12454, and SR11481. Concentrations of NBD mimetics were determined in plasma, brain, muscle, spleen, and liver 2 h post a single i.p. injection of 10 mg/kg of drugs; n = 3 per group. (B) Shown is the model to induce LPS-mediated acute inflammation and the treatment regimen with NBD mimetics. Mouse image via http://www.clker.com/clipart-mice-blank.html (copyright-free). (C) NBD mimetics suppressed LPS-induced acute inflammation in liver and lung by down-regulating NF-κB target gene expression. Vehicle, SR12343, SR12460, and 8K-NBD peptide were dosed at 10 mg/kg 30 min prior to the LPS treatment. Acute inflammation was induced by i.p. injection of 10 mg/kg LPS. Lung and liver were collected 2–4 h post injection, and mRNA was extracted for qRT-PCR analysis. (D, E) Western blot analysis was performed to probe for the expression of p-IκBα and COX-2 at protein level in liver and lung tissues. (F) Serum levels of IL-6 were determine by ELISA. n = 3–8 each group. *P < 0.05, **P < 0.01. Underlying data can be found in S1 Data. COX-2, cyclooxygenase 2; IL-6, interleukin 6; i.p., intraperitoneal; LPS, lipopolysaccharide; NBD, NEMO-binding domain; n.d., nondetectable; NEMO, NF-κB essential modulator; NF-κB, nuclear factor κB; qRT-PCR, quantitative real-time polymerase chain reaction. TEXT PRINTED IN THE PICTURE: (A) SR11481: Concentration (ng/ml): n.d. (plasma)
To determine their NF-κB inhibitory effects in vivo, SR12343 and SR12460 were tested in an acute model of LPS-induced systemic endotoxemia. C57BL/6J mice were pretreated with vehicle control, 8K-NBD peptide, or NBD mimetics at 10 mg/kg for 30 min, followed by LPS induction at 10 mg/kg (Fig 6B). Lung and liver were harvested 2–4 h post treatment for qRT-PCR analysis of NF-κB target genes. […] Despite lower plasma and tissue concentrations of SR12343 compared to SR12460, its inhibition of NF-κB/IKK in liver and lung were greater than that of SR12460 (Fig 6C). Similarly, acute treatment with SR12343 also affected the LPS-induced expression of NF-κB target genes at protein level. The extent of phosphorylation of IκBα and the levels of COX-2 were reduced in lung and liver tissues treated with SR12343 (Fig 6D and 6E). […] However, no significant differences in lung histopathology were observed. Finally, there was a slight reduction in the number of white blood cells and neutrophils in the SR12343-treated group (Table 2).
LPS (strain O111:B4) was prepared in PBS at a sublethal dose of 10 mg/kg. Female WT mice 8 to 10 wk old (20–30 g) were dosed by i.p. injection with vehicle, NBD peptide (10 mg/kg), or small molecules (10 mg/kg) for 30 min, followed by i.p. injection of saline (1 mL/kg) or LPS (10 mg/kg). Mice were euthanized 2 to 4 h post treatment, and lung and liver tissues were collected for further analysis.
Snap-frozen tissues were preserved in RNAlater RNA stabilization solution (ThermoFisher). Total RNA was extracted from cells or tissues by using TRIZOL reagent (Life Technologies), and 1,500 ng of mRNA was subjected to synthesis of cDNA using SuperScript VILO cDNA synthesis kit. qRT-PCR was performed in a StepOnePlus Real-Time PCR system using Platinum SYBR Green qPCR SuperMix-UDG (ThermoFisher). Target gene expression was calculated using the comparative CT method (ΔΔCT) by normalizing to an internal control gene Actb (β-actin). […]

[1] = Fig 6C, 10 mg/kg 30 min before LPS 10 mg/kg i.p., 2-4 h, single mice

What does the source list for `Nc1ncccc1C(=O)OCC(=O)Nc1ccc(Cl)cc1F` [ZINC12909780]?
NF-κB luciferase activity normalized to control (NF-κB activation; Fig 2B, 6.25 μM (log 0.79588)): 96.2175 and 102.44 and 115.164; NF-κB luciferase activity normalized to control (NF-κB activation; Fig 2B, 25 μM (log 1.39794)): 93.2591 and 96.1802 and 73.5256

For `O=C(CNc1ccc(Cl)cn1)NCCc1cccc(Br)c1` [SR12343], which “NF-κB transcriptional activity in lung (iNOS, IκBα, COX-2, IL-6)” value (NF-κB target genes; 10 mg/kg, LPS 10 mg/kg) is on record?
Its value is “significantly inhibit”.

And the “ikBa mRNA in liver (qRT-PCR, relative to vehicle)” value (NF-κB target genes; [1])?
The value was 1.072 and 1.242 and 1.317 and 1.467 and 0.7748 and 0.7346 and 1.371.

And the “ikBa mRNA in lung (qRT-PCR, relative to vehicle)” value (NF-κB target genes; [1])?
Its value is 0.8689 and 0.6292 and 0.6865 and 0.9681 and 0.6797 and 1.015 and 0.7177.

Which “NF-κB luciferase activity normalized to vehicle” value (NF-κB activation) does the source give for `O=C(COC(=O)Cc1ccccc1F)Nc1ccc(Cl)cn1` [ZINC5] here?
The value was 58.79 and 64.16 and 89.81 and 46.87 and 48.05.

And the “NF-κB luciferase activity normalized to vehicle” value (NF-κB activation; listed as Zinc5)?
The value was “lowered NF-κB activity robustly”.

And the “NF-κB luciferase activity normalized to control” value (NF-κB activation; Fig 2E, 25 μM)?
The value was 78.88 and 74.23 and 94.1 and 85.57 and 85.27.

And the “NF-κB luciferase activity normalized to control” value (NF-κB activation; Fig 2E, 50 μM)?
Its value is 78.97 and 56.84 and 56.56 and 66.34.

And the “NF-κB luciferase activity normalized to control” value (NF-κB activation; Fig 2E, 100 μM)?
Its value is 40.8 and 50.51 and 60.75 and 33.05 and 42.78.

For `O=C(CNCCc1cc(F)cc(F)c1)Nc1ccc(Cl)cn1` [SR12460], which “iNOS mRNA in lung (qRT-PCR, relative to vehicle)” value (NF-κB target genes; [1]) is on record?
The value was 0.4025 and 0.5396 and 0.4809 and 0.7846 and 0.6512 and 0.5854 and 0.4587 and 0.5387.

And the “ikBa mRNA in lung (qRT-PCR, relative to vehicle)” value (NF-κB target genes; [1])?
The value was 0.8864 and 1.179 and 0.7265 and 0.7577 and 0.6496 and 0.9355 and 0.7819.
